From patent US20250042895A1, “INHIBITORS OF ULK1 AND METHODS OF USE” (H. LEE MOFFITT CANCER CENTER AND RESEARCH INSTITUTE, INC., priority 2021, published 2025)

Assays:
ULK1 kinase domain = biological target: T1, ULK1 kinase domain (Homo sapiens, UniProt O75385); assay: Differential scanning fluorimetry (thermal shift); assay type: binding; conditions: 2 μM ULK1 kinase domain, 50 μM compound, vs DMSO reference
T1 construct: The protein expression construct of ULK1 kinase domain (1-283) was cloned; 6His-Sumo (N, cleaved yes); made in house; host or cells: E. coli BL21 star, co-expressed with lambda phosphatase
T1 sequence (O75385 1-283): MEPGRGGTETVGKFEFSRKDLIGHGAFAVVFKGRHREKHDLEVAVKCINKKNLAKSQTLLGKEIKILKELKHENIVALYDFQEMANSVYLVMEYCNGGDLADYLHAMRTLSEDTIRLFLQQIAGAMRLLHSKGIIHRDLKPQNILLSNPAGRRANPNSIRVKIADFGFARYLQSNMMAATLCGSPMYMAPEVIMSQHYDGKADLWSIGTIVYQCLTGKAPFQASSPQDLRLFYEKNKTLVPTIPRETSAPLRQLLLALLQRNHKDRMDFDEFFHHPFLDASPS

ULK1 kinase = biological target: T2, ULK1 kinase (Homo sapiens, UniProt O75385); assay: Radiometric HotSpot kinase assay (Reaction Biology); assay type: biochemical; conditions: activity-based ULK1 kinase assay
T2 construct: purchased Reaction Biology
T2 sequence (O75385 1-1050): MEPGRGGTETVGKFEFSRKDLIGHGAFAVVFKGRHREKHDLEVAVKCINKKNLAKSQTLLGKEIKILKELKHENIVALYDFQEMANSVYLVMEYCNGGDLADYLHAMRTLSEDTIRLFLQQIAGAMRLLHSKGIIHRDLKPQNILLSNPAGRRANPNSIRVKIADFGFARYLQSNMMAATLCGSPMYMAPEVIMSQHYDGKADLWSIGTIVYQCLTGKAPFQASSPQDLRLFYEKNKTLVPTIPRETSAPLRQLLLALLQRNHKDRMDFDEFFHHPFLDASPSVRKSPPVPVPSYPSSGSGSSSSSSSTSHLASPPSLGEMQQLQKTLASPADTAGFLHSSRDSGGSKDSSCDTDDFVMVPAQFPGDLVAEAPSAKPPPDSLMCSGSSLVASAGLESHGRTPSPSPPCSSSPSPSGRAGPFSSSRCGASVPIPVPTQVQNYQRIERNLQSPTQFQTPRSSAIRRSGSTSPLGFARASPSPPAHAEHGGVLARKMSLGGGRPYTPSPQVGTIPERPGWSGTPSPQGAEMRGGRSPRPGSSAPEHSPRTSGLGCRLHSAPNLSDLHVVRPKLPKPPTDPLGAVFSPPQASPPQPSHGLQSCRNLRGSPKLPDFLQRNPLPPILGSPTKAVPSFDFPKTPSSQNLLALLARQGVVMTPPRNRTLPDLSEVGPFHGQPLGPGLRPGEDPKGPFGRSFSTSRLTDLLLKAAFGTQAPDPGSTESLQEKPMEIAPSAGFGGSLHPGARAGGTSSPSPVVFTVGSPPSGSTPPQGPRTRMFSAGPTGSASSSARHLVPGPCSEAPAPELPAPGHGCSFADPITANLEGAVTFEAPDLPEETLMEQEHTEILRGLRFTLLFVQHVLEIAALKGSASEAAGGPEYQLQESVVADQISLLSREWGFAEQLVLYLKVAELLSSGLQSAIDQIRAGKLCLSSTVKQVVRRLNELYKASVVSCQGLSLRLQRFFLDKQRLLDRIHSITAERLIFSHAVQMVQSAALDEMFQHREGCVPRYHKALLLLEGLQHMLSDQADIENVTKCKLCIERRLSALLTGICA

GST-ULK1 = biological target: T3, GST-ULK1 (Homo sapiens, UniProt O75385); assay: LanthaScreen ULK1 inhibitor assay; assay type: biochemical; conditions: 5 nM GST-ULK1, 30 nM tracer, 20 μM ATP, 1 hr room temperature
T3 sequence (O75385 1-1050): T2 sequence (O75385 1-1050)

ULK1-nanoluc = biological target: T4, ULK1-nanoluc (Homo sapiens, UniProt O75385); assay: NanoBRET target engagement in live cells; assay type: cell-based; conditions: H2030 cells transfected with ULK1-nanoluc, Tracer K10, 2 hr
T4 construct: host or cells: H2030 cells (ATCC)
T4 sequence (O75385 1-1050): T2 sequence (O75385 1-1050)

O=C(NCCF)c1nc(-c2cnc3[nH]c(-c4ccc(F)cc4)cc3c2)cs1 [Compound 78, N-(2-fluoroethyl)-4-(2-(4-fluoro-phenyl)-1H-pyrrolo[2,3-b]pyridin-5-yl)thiazole-2-carboxamide]
ΔTm at 50 µM (ULK1 kinase domain): 4.83 °C | IC50 (ULK1 kinase): 20 nM | IC50 (GST-ULK1): 27 nM | EC50 (ULK1-nanoluc): 282 nM

CN1CC=C(c2cc3c(NC4CCNC4)c(C(F)(F)F)cnc3[nH]2)CC1 (stereo not shown) [Compound 98, 2-(1-methyl-1,2,3,6-tetrahydropyridin-4-yl)-N-(pyrrolidin-3-yl)-5-(trifluoromethyl)-1H-pyrrolo[2,3-b]pyridin-4-amine]
ΔTm at 50 µM (ULK1 kinase domain): 10.3 °C | IC50 (ULK1 kinase): 144 nM | IC50 (GST-ULK1): 57 nM | EC50 (ULK1-nanoluc): 184 nM

CN1CC=C(c2cc3c(NCCN4CCNCC4)c(C(F)(F)F)cnc3[nH]2)CC1 [Compound 101, 2-(1-methyl-1,2,3,6-tetrahydropyridin-4-yl)-N-(2-(piperazin-1-yl)ethyl)-5-(trifluoromethyl)-1H-pyrrolo[2,3-b]pyridin-4-amine]
ΔTm at 50 µM (ULK1 kinase domain): 11 °C | IC50 (ULK1 kinase): 131 nM | IC50 (GST-ULK1): 50 nM | EC50 (ULK1-nanoluc): 157 nM

FC(F)(F)c1cnc2[nH]c(C3=CCOCC3)cc2c1NCCN1CCOCC1 [Compound 89, 2-(3,6-dihydro-2H-pyran-4-yl)-N-(2-morpholinoethyl)-5-(trifluoromethyl)-1H-pyrrolo[2,3-b]pyridin-4-amine]
ΔTm at 50 µM (ULK1 kinase domain): 8.13 °C | IC50 (ULK1 kinase): 37 nM | IC50 (GST-ULK1): 92 nM | EC50 (ULK1-nanoluc): 1160 nM

O=C(NCC1(O)CC1)c1nc(-c2cnc3[nH]c(-c4ccc(F)cc4)cc3c2)cs1 [Compound 73, 4-(2-(4-fluorophenyl)-1H-pyrrolo-[2,3-b]pyridin-5-yl)-N-((1-hydroxy-cyclopropyl)methyl)thiazole-2-carboxamide]
ΔTm at 50 µM (ULK1 kinase domain): 7.72 °C | IC50 (ULK1 kinase): 10 nM | IC50 (GST-ULK1): 3 nM | EC50 (ULK1-nanoluc): 195 nM

O=C(NCC1CC1)c1nc(-c2cnc3[nH]c(-c4ccc(F)cc4)cc3c2)cs1 [Compound 71, N-(cyclopropylmethyl)-4-(2-(4-fluorophenyl)-1H-pyrrolo[2,3-b]-pyridin-5-yl)thiazole-2-carboxamide]
ΔTm at 50 µM (ULK1 kinase domain): 3.73 °C | IC50 (ULK1 kinase): 14 nM | IC50 (GST-ULK1): 39 nM | EC50 (ULK1-nanoluc): 414 nM

C[C@H](CO)NC(=O)c1cc(-c2cnc3[nH]c(C4=CCCNC4)cc3c2)cs1 [Compound 103]
IC50 (GST-ULK1): 36 nM | EC50 (ULK1-nanoluc): 1400 nM

CC[C@@H](CO)NC(=O)c1nc(-c2cnc3[nH]c(-c4ccc(F)cc4)cc3c2)cs1 [Compound 61, (S)-4-(2-(4-Fluorophenyl)-1H-pyrrolo[2,3-b]pyridin-5-yl)-N-(1-hydroxybutan-2-yl)-thiazole-2-carboxamide]
ΔTm at 50 µM (ULK1 kinase domain): 9.31 °C | IC50 (ULK1 kinase): 8 nM | IC50 (GST-ULK1): 7 nM | EC50 (ULK1-nanoluc): 131 nM

C[C@H](CO)NC(=O)c1cc(-c2cnc3[nH]c(C4=CCNC4)cc3c2)cs1 [Compound 105]
IC50 (GST-ULK1): 139 nM | EC50 (ULK1-nanoluc): ≥ 10000 nM

C[C@@H](CO)NC(=O)c1cc(-c2cnc3[nH]c(C4=CCNCC4)cc3c2)cs1 [Compound 106]
IC50 (GST-ULK1): 16 nM | EC50 (ULK1-nanoluc): 1130 nM

O=C(NCC1(O)CC1)c1cc(-c2cnc3[nH]c(C4=CNCCC4)cc3c2)cs1 [Compound 108]
IC50 (GST-ULK1): 26 nM | EC50 (ULK1-nanoluc): 219 nM

C[C@@H](CO)NC(=O)c1cc(-c2cnc3[nH]c(C4=CCN(C)CC4)cc3c2)cs1 [Compound 107]
IC50 (GST-ULK1): 19 nM | EC50 (ULK1-nanoluc): 391 nM

O=C(NCC(F)F)c1nc(-c2cnc3[nH]c(-c4ccc(F)cc4)cc3c2)cs1 [Compound 79, N-(2,2-difluoroethyl)-4-(2-(4-fluorophenyl)-1H-pyrrolo[2,3-b]-pyridin-5-yl)thiazole-2-carboxamide]
ΔTm at 50 µM (ULK1 kinase domain): 5.45 °C | IC50 (ULK1 kinase): 12 nM | IC50 (GST-ULK1): 16 nM | EC50 (ULK1-nanoluc): 156 nM

FC(F)(F)c1cnc2[nH]c(C3=CCOCC3)cc2c1NCCN1CCNCC1 [Compound 87, 2-(3,6-dihydro-2H-pyran-4-yl)-N-(2-(piperazin-1-yl)ethyl)-5-(trifluoromethyl)-1H-pyrrolo[2,3-b]pyridin-4-amine]
ΔTm at 50 µM (ULK1 kinase domain): 12.5 °C | IC50 (ULK1 kinase): 10 nM | IC50 (GST-ULK1): 16 nM | EC50 (ULK1-nanoluc): 76 nM

O=C(NCC(O)C(F)(F)F)c1nc(-c2cnc3[nH]c(-c4ccc(F)cc4)cc3c2)cs1 (stereo not shown) [Compound 65, 4-(2-(4-Fluorophenyl)-1H-pyrrolo[2,3-b]pyridin-5-yl)-N-(3,3,3-trifluoro-2-hydroxy-propyl)thiazole-2-carboxamide]
ΔTm at 50 µM (ULK1 kinase domain): 7.12 °C | IC50 (ULK1 kinase): 29 nM | IC50 (GST-ULK1): 17 nM | EC50 (ULK1-nanoluc): 122 nM

O=C(NCC(F)(F)F)c1cc(-c2cnc3[nH]c(-c4ccc(OCCN5CCCCC5)cc4)cc3c2)cs1 [Compound 38, 4-(2-(4-(2-(Piperidin-1-yl)ethoxy)phenyl)-1H-pyrrolo[2,3-b]pyridin-5-yl)-N-(2,2,2-trifluoroethyl)thiophene-2-carboxamide]
ΔTm at 50 µM (ULK1 kinase domain): 12.8 °C | IC50 (ULK1 kinase): 15 nM | IC50 (GST-ULK1): 14 nM | EC50 (ULK1-nanoluc): 22 nM

C[C@@H](CO)NC(=O)c1nc(-c2cnc3[nH]c(-c4ccc(F)cc4)cc3c2)cs1 [Compound 76, (S)-4-(2-(4-fluorophenyl)-1H-pyrrolo[2,3-b]pyridin-5-yl)-N-(1-hydroxypropan-2-yl)thiazole-2-carboxamide]
ΔTm at 50 µM (ULK1 kinase domain): 7.56 °C | IC50 (ULK1 kinase): 44 nM | IC50 (GST-ULK1): 25 nM | EC50 (ULK1-nanoluc): 541 nM

O=C(NCC1(O)CCC1)c1nc(-c2cnc3[nH]c(-c4ccc(F)cc4)cc3c2)cs1 [Compound 70, 4-(2-(4-fluorophenyl)-1H-pyrrolo[2,3-b]pyridin-5-yl)-N-((1-hydroxycyclobutyl)methyl)thiazole-2-carboxamide]
ΔTm at 50 µM (ULK1 kinase domain): 8.04 °C | IC50 (ULK1 kinase): 22 nM | IC50 (GST-ULK1): 8 nM | EC50 (ULK1-nanoluc): 129 nM

O=C(NC[C@H](O)CO)c1cccc(-c2cnc3[nH]c(-c4ccc(F)cc4)cc3c2)n1 [Compound 58, (S)—N-(2,3-Dihydroxypropyl)-6-(2-(4-fluorophenyl)-1H-pyrrolo[2,3-b]pyridin-5-yl)-picolinamide]
ΔTm at 50 µM (ULK1 kinase domain): 9.22 °C | IC50 (ULK1 kinase): 22 nM | IC50 (GST-ULK1): 67 nM | EC50 (ULK1-nanoluc): 2370 nM

CC[C@@H](CO)NC(=O)c1cccc(-c2cnc3[nH]c(-c4ccc(F)cc4)cc3c2)n1 [Compound 59, (S)-6-(2-(4-Fluorophenyl)-1H-pyrrolo[2,3-b]pyridin-5-yl)-N-(1-hydroxybutan-2-yl)-picolinamide]
ΔTm at 50 µM (ULK1 kinase domain): 11 °C | IC50 (ULK1 kinase): 7 nM | IC50 (GST-ULK1): 10 nM | EC50 (ULK1-nanoluc): 149 nM
